The results in this text go back to patent publication EP4763971A1, “MULTI-ORGANS-ON-A-CHIP WITH INVERTED MICROWEIR STRUCTURE AS MULTI-CELL CULTURE PLATFORM AND USE THEREOF” (Humanase, priority 2023, dated 2025).

Series [1] has as its system cardiomyocytes (Cardiosight-S). The following applies: control heart-on-a-chip, 9,000 µM cyclophosphamide, compared to cardiomyocytes not treated with cyclophosphamide.
Source text: (§1) Next, cardiomyocytes (Cardiosight-S) differentiated from human pluripotent stem cells (hPSCs) from NEXEL were mixed with a hydrogel such as collagen, and then injected using a pipette into the cell inlet connected to the inner cell chamber of the multi-organ-on-a-chip prepared in Example 1, thereby injecting cardiomyocytes into the inner cell chamber.
(§2) Next, the hydrogel comprised in the injected cardiomyocyte mixture was cured to fix the cardiomyocytes within the cell chamber. Depending on the type of hydrogel, curing is performed using different curing methods. In the case of collagen, curing was performed via temperature change by placing in an incubator for at least 1 hour, and then cardiomyocytes were continuously cultured in the incubator.
The culture was performed by supplying a culture medium comprising a mixture of Cardiosight-S Media supplemented with supplement (50X) and Minimum Essential Media Eagle (MEM, high-glucose, gibco) supplemented with 25 mM HEPES (4-(2-hydroxyethyl)-1-piperazineethanesulfonic acid, gibco), 10% (v/v) FBS, P/S (100 Uml-1 penicillin/100 Uml-1 streptomycin, Sigma-Aldrich Co., MO) at a certain ratio. […]
The test system of series [2] is cardiomyocytes (Cardiosight-S).
Procedure: as §1
Next, 1 x 10^5 cultured hepatocytes (HepG2) were injected using a pipette into each cell inlet connected to the two outer cell chambers of the multi-organ-on-a-chip prepared in Example 1, thereby injecting hepatocytes into the two outer cell chambers.
as §2
Further, hepatocytes were fixed and cultured using the same method. […]

Structures are written as SMILES. Where two headings read alike, the source gives them in different places.

On to `O=P1(N(CCCl)CCCl)NCCCO1` (stereo not drawn) [cyclophosphamide], for which the “beating rate of the cardiomyocytes increased” value was 31.76 ± 0.59% in series [1] and 177.9 ± 2.56% in series [2] (liver-heart-on-a-chip, 9,000 µM cyclophosphamide, compared to cardiomyocytes not treated with cyclophosphamide). The “effect on the beating rate of cardiomyocytes” value in series [2] (liver-heart-on-a-chip compared to the control heart-on-a-chip, 0, 1,000, 5,000, or 9,000 µM (FIG. 8)) is given as “more significant effect”.
